Data from patent US5866567A, “Diazepinones, their production and use” (Takeda Chemical Industries, Ltd., priority 1995, dated 1999).

Target: T1, Human GnRH receptor (Homo sapiens, UniProt P30968)
T1 construct: expressed in transfected cells; host or cells: CHO (Chinese hamster ovary) cells, membrane fraction
T1 sequence (P30968 1-328): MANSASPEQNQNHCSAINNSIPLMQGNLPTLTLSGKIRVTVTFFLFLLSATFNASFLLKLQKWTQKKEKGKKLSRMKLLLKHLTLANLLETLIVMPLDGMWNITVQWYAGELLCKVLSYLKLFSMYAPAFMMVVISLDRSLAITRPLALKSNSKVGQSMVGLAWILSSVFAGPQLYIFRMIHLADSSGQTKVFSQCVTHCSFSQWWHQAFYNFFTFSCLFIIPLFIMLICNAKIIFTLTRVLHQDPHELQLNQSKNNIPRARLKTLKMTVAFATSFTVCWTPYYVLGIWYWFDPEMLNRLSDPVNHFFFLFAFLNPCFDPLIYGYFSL
Assay: Human GnRH receptor binding inhibition assay (125I-leuprolerin, membrane fraction of CHO cells expressing human GnRH receptors)
Settings: CHO cell membrane fraction with human GnRH receptors, 25° C., 60 minutes, concentration series, Hill plot, read-out: Binding inhibitory activity (IC50)
Experimental: Human GnRH receptor binding inhibition assay
(A) Preparation of ^125 I-leuprolerin
Ten (10) μl of 3×10^-4 M aqueous leuprolerin solution and 10 μl of 0.01 mg/ml lactoperoxidase solution were taken in a tube, and 10 μl of Na^125 I solution (37 MBq) was added. After stirring, 10 μl of 0.001% H2 O2 was added and the reaction was conducted at room temperature for 20 minutes. The reaction was stopped by adding 700 μl of 0.05% TFA solution, and the reaction mixture was purified by reversed HPLC. The HPLC parameters are shown below. The retention time of ^125 I-leuprolerin was 26-27 minutes.
Column: TSKgel ODS-80™ CTR (4.6 mm×10 cm)
Eluent: Solvent A (0.05%TFA) Solvent B (40%CH3 CN-0.05%TFA)
Min. 0 (100% Solvent A)--Min. 3 (100% Solvent A)--Min. 7 (50% Solvent A+50% Solvent B)--Min. 40 (100% Solvent B) Elution temperature: room temperature Elution flow rate: 1 ml/min.
CHO cells (10^9 cells) with human GnRH receptors expressed were floated on phosphate-buffered saline containing EDTA (PBS-EDTA) and centrifuged at 100×g for 5 minutes. To the pellet obtained was added 10 ml of a cell homogenate buffer (10 mM NaHCO3, 5 mM EDTA, pH 7.5) and the mixture was homogenized using a Polytron homogenizer. The homogenate was centrifuged at 400×g for 15 minutes and the supernatant was taken in an ultracentrifuge tube and recentrifuged at 100,000×g for 1 hour. The membrane fraction thus obtained as a pellet was suspended in 2 ml of assay buffer and centrifuged at 100,000×g for 1 hour. The membrane fraction recovered was resuspended in 20 ml of assay buffer and the suspension was portioned, stored at -80° C., and thawed when needed.
(C) Determination of the ^125 I-leuprolerin binding inhibition rate
The membrane fraction prepared in Step (B) was diluted with assay buffer to 200 μg/ml and the dilution was portioned into tubes, 188 μl per tube. Then, 2 μl of 2 mM solution of the test compound in 60% DMSO and 10 μl of 38 nM ^125 I-leuprolerin solution in the same solvent were simultaneously added to the tubes. To determine the maximum binding, a test mixture of 2 μl of 60% DMSO and 10 μl of 38 nM ^125 I-leuprolerin solution in the same solvent was prepared. For the determination of nonspecific binding, a test mixture of 2 μl of 100 μM leuprolerin solution in 60% DMSO and 10 μl of 38 nM solution of ^125 I-leuprolerin in the same solvent was also prepared. The mixtures were respectively allowed to react at 25° C. for 60 minutes and the reaction product in each tube was filtered through a poly(ethylene imine)-treated Whatman glass filter (GF-F) under suction. The radioactivity of ^125 I-leuprolerin remaining on the filter was determined using a γ-counter.
Using the measured values, the following equation was calculated to find the binding inhibition rate for each test compound.
Binding inhibition (%)=(TB-SB)/(TB-NSB)×100
[SB: radioactivity with the compound added
TB: maximum bound radioactivity
NBS: nonspecifically bound radioactivity]
Using a concentration series of each test compound, the concentration of the compound which inhibited the binding by 50% (IC50) was calculated by Hill plot.

SMILES | IC50 [nM]
O=C(Nc1ccc(CN2C(=O)[C@H]3CCC[C@H]3N(C(=O)CN3C(=O)c4ccccc4C3=O)c3ccccc32)cc1)OCc1ccccc1 (relative stereo) [Example 1, (3aR*,10aS*)-9-[4-(Benzyloxycarbonylamino)benzyl]-4-(phthalimidoacetyl)-2,3,3a,4,9,10a-hexahydrobenzo[b]cyclopenta[e][1,4]diazepin-10(1H)-one] | 100
O=C(Nc1ccc(CN2C(=O)[C@H]3CCC[C@H]3N(C(=O)CN3C(=O)C4=C(CCCC4)C3=O)c3ccccc32)cc1)OCc1ccccc1 (relative stereo) [Example 2, (3aR*,10aS*)-9-[4-(Benzyloxycarbonylamino)benzyl]-4-(2H-1,3-dioxo-1,3,4,5,6,7-hexahydroisoindole-2-acetyl)-2,3,3a,4,9,10a-hexahydrobenzo[b]cyclopenta[e][1,4]diazepin-10(1H)-one] | 70
CCC(=O)Nc1ccc(CN2C(=O)[C@H]3CCC[C@H]3N(C(=O)CN3C(=O)c4ccccc4C3=O)c3ccccc32)cc1 (relative stereo) [Example 6, (3aR*,10aS*)-4-(Phthalimidoacetyl)-9-(4-propionamidobenzyl)-2,3,3a,4,9,10a-hexahydrobenzo[b]cyclopenta[e][1,4]diazepin-10(1H)-one] | 800
O=C(Nc1ccc(CN2C(=O)[C@H]3CCC[C@H]3N(C(=O)CN3C(=O)c4ccccc4C3=O)c3ccccc32)cc1)c1ccccc1 (relative stereo) [Example 7, (3aR*,10aS*)-9-(4-Benzamidobenzyl)-4-(phthalimidoacetyl)-2,3,3a,4,9,10a-hexahydrobenzo[b]cyclopenta[e]-[1,4]diazepin-10(1H)-one] | 200
O=C(Nc1ccc(CN2C(=O)[C@H]3CCC[C@H]3N(C(=O)CN3C(=O)c4ccccc4C3=O)c3ccccc32)cc1)c1ccccc1F (relative stereo) [Example 8, (3aR*,10aS*)-9-[4-(2-Fluorobenzamido)benzyl]-4-(phthalimidoacetyl)-2,3,3a,4,9,10a-hexahydrobenzo[b]cyclopenta[e][1,4]diazepin-10(1H)-one] | 300
O=C(Nc1ccc(CN2C(=O)[C@H]3CCC[C@H]3N(C(=O)CN3C(=O)c4ccccc4C3=O)c3ccccc32)cc1)c1cccc(F)c1 (relative stereo) [Example 9, (3aR*,10aS*)-9-[4-(3-Fluorobenzamido)benzyl]-4-(phthalimidoacetyl)-2,3,3a,4,9,10a-hexahydrobenzo[b]cyclopenta[e][1,4]diazepin-10(1H)-one] | 200
O=C(Nc1ccc(CN2C(=O)[C@H]3CCC[C@H]3N(C(=O)CN3C(=O)c4ccccc4C3=O)c3ccccc32)cc1)c1ccc(F)cc1 (relative stereo) [Example 10, (3aR*,10aS*)-9-[4-(4-Fluorobenzamido)benzyl]-4-(phthalimidoacetyl)-2,3,3a,4,9,10a-hexahydrobenzo[b]cyclopenta[e][1,4]diazepin-10(1H)-one] | 200
O=C(Nc1ccc(CN2C(=O)[C@H]3CCC[C@H]3N(C(=O)CN3C(=O)c4ccccc4C3=O)c3ccccc32)cc1)c1ccc(Cl)cc1 (relative stereo) [Example 11, (3aR*,10aS*)-9-[4-(4-Chlorobenzamido)benzyl]-4-(phthalimidoacetyl)-2,3,3a,4,9,10a-hexahydrobenzo[b]cyclopenta[e][1,4]diazepin-10(1H)-one] | 200
O=C(Nc1ccc(CN2C(=O)[C@H]3CCC[C@H]3N(C(=O)CN3C(=O)c4ccccc4C3=O)c3ccccc32)cc1)c1ccc(Br)cc1 (relative stereo) [Example 12, (3aR*,10aS*)-9-[4-(4-Bromobenzamido)benzyl]-4-(phthalimidoacetyl)-2,3,3a,4,9,10a-hexahydrobenzo[b]cyclopenta[e][1,4]diazepin-10(1H)-one] | 300
COc1cccc(C(=O)Nc2ccc(CN3C(=O)[C@H]4CCC[C@H]4N(C(=O)CN4C(=O)c5ccccc5C4=O)c4ccccc43)cc2)c1 (relative stereo) [Example 14, (3aR*,10aS*)-9-[4-(3-Methoxybenzamido)benzyl]-4-(phthalimidoacetyl)-2,3,3a,4,9,10a-hexahydrobenzo[b]cyclopenta[e][1,4]diazepin-10(1H)-one] | 200
COc1ccc(C(=O)Nc2ccc(CN3C(=O)[C@H]4CCC[C@H]4N(C(=O)CN4C(=O)c5ccccc5C4=O)c4ccccc43)cc2)cc1 (relative stereo) [Example 15, (3aR*,10aS*)-9-[4-(4-Methoxybenzamido)benzyl]-4-(phthalimidoacetyl)-2,3,3a,4,9,10a-hexahydrobenzo[b]cyclopenta[e][1,4]diazepin-10(1H)-one] | 200
O=C(CCc1ccccc1)Nc1ccc(CN2C(=O)[C@H]3CCC[C@H]3N(C(=O)CN3C(=O)c4ccccc4C3=O)c3ccccc32)cc1 (relative stereo) [Example 17, (3aR*,10aS*)-9-[4-(3-Phenylpropionamido)benzyl]-4-(phthalimidoacetyl)-2,3,3a,4,9,10a-hexahydrobenzo[b]cyclopenta[e][1,4]diazepin-10(1H)-one] | 500
O=C(COc1ccccc1)Nc1ccc(CN2C(=O)[C@H]3CCC[C@H]3N(C(=O)CN3C(=O)c4ccccc4C3=O)c3ccccc32)cc1 (relative stereo) [Example 18, (3aR*,10aS*)-9-[4-(Phenoxyacetamido)benzyl]-4-(phthalimidoacetyl)-2,3,3a,4,9,10a-hexahydrobenzo[b]cyclopenta[e][1,4]diazepin-10(1H)-one] | 600
O=C(Nc1ccc(CN2C(=O)[C@H]3CCC[C@H]3N(C(=O)CN3C(=O)c4ccccc4C3=O)c3ccccc32)cc1)c1ccc2ccccc2c1 (relative stereo) [Example 21, (3aR*,10aS*)-9-[4-(2-Naphthoylamino)benzyl]-4-(phthalimidoacetyl)-2,3,3a,4,9,10a-hexahyrobenzo[b]cyclopenta[e][1,4]diazepin-10(1H)-one] | 200
O=C(NCc1ccccc1)Nc1ccc(CN2C(=O)[C@H]3CCC[C@H]3N(C(=O)CN3C(=O)c4ccccc4C3=O)c3ccccc32)cc1 (relative stereo) [Example 25, (3aR*,10aS*)-9-[4-(3-benzylureido)benzyl]-4-(phthalimidoacetyl)-2,3,3a,4,9,10a-hexahydrobenzo[b]cyclopenta[e][1,4]diazepin-10(1H)-one] | 30
O=C(NCc1ccccc1)Nc1ccc(CN2C(=O)[C@H]3CCC[C@H]3N(C(=O)CN3C(=O)C4=C(CCCC4)C3=O)c3ccccc32)cc1 (relative stereo) [Example 26, (3aR*,10aS*)-9-[4-(3-Benzylureido)benzyl]-4-(2H-1,3-dioxo-1,3,4,5,6,7-hexahydroisoindole-2-acetyl)-2,3,3a,4,9,10a-hexahydrobenzo[b]cyclopenta[e][1,4]diazepin-10(1H)-one] | 40
C[C@@H](NC(=O)Nc1ccc(CN2C(=O)[C@H]3CCC[C@H]3N(C(=O)CN3C(=O)c4ccccc4C3=O)c3ccccc32)cc1)c1ccccc1 (relative stereo) [Example 27, (3aR*,10aS*)-9-[4-[3-((R)-1-Phenylethyl)ureido]-benzyl]-4-(phthalimidoacetyl)-2,3,3a,4,9,10a-hexahydrobenzo[b]cyclopenta[e][1,4]diazepin-10(1H)-one] | 20
